The test addresses T1, sGC (Rattus norvegicus, UniProt P20595).
T1 construct: Rat primary neurons were isolated from timed-pregnant female Sprague-Dawley (SD) rats; endogenous in cells; host or cells: rat primary neurons (Sprague-Dawley)
T1 sequence (P20595 1-619): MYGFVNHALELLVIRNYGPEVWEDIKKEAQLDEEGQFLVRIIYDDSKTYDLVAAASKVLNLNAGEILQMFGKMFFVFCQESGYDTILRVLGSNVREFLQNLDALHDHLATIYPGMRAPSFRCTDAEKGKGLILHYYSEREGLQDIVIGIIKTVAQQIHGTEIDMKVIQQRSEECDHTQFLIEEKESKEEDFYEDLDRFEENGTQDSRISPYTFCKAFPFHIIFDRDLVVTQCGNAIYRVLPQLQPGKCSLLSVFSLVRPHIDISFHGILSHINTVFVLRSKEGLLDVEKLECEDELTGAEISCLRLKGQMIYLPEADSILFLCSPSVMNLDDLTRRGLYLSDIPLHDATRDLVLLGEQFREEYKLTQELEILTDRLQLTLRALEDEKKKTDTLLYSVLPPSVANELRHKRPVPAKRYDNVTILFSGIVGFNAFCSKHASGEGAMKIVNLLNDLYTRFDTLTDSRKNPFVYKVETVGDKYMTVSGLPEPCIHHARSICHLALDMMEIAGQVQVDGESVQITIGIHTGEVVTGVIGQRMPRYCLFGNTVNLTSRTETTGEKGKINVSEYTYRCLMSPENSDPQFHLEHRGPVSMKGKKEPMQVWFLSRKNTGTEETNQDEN
T1 sequence (P19686 1-690 partner): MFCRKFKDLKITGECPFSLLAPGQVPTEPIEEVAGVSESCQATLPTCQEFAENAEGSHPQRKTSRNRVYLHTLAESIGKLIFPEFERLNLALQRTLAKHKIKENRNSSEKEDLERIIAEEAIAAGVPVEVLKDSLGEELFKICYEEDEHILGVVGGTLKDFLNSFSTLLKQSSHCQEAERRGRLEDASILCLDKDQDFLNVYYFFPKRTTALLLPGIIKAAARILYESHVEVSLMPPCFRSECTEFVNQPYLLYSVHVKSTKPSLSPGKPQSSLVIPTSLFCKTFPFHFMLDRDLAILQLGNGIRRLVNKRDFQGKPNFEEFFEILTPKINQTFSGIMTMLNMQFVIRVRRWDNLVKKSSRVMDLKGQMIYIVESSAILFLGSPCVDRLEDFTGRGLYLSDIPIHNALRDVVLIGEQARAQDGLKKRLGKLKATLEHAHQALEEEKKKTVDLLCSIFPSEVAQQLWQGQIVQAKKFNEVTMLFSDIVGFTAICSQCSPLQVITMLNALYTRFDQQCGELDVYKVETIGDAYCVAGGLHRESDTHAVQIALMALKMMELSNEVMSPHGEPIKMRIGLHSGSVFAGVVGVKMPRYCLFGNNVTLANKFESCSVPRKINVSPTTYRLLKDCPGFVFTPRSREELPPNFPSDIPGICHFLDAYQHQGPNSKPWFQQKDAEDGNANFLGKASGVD
The test is described as follows: cGMP measurement in rat primary neurons (neuronal-based cell assay). Conditions: rat primary neurons (Sprague-Dawley); 0.5 mM IBMX; test compound with fixed DETA (Diethylenetriamine NONOate); 20 min at 37° C.; cGMP by CatchPoint kit; read-out: sGC Neuron EC50. The procedure:
Example 2: cGMP Measurement in Rat Primary Neurons
Rat primary neurons were isolated from timed-pregnant female Sprague-Dawley (SD) rats, washed once with HBSS with calcium and magnesium and incubated with a solution containing 0.5 mM 3-isobutyl-1-methylxanthine (IBMX) in HBSS (80 μL/well) at 37° C. for 15 min. Next, a 5× stock […] of test compound with a fixed concentration of DETA (Diethylenetriamine NONOate) was added to the wells to make x nM concentration for test compound solutions and a 30 µM concentration for DETA solution, where x was 1 of the following final concentrations: 0.029, 0.114, 0.460, 1.83, 7.32, 29.29, 117.2, 468.8, 1875, 7500 and 30,000 nM. Then, the cells were incubated for 20 min at 37° C. At the end of incubation, 100 μL lysis buffer (Molecular Devices) was added to cells. CatchPoint™ Cyclic-GMP Fluorescent Assay Kit was used with Molecular Devices' ID3 multi-mode plate reading. Sample cGMP concentrations were extrapolated from standard curve using Softmax Pro 7 Software. A well-characterized, potent sGC stimulator was included in all assay runs and used as a positive control.
Test compound (“agonist”) concentrations vs extrapolated cGMP concentrations (“response”) were plotted and analyzed using GraphPad Prism version 9.4.1. Curve fit was used for each dataset; non-linear log(agonist) vs. response-variable slope (four parameters). The EC50 is interpolated from the curve fit and is defined as the concentration at which the compound elicits 50% of its maximal response. When the experiment is carried out more than two times, the geometric mean is reported, otherwise the arithmetic mean is shown. To increase the accuracy of the EC50 calculations, top and bottom parameters were constrained when consistent with the observed data in a given assay run. For instance, in assay runs where the cGMP response values in the absence of test article were consistent across plates, an average across all of these wells was used as a lower constraint in the calculations. In assay runs where the maximal cGMP responses were consistent with that of the positive control, a top constraint equal to the maximal cGMP response of the positive control was applied. If there was significant variability in cGMP response in no compound wells or variation in maximal responses across plates, no constraints were imposed.

One may read the EC50 as the midpoint of the concentration-response curve. With `Cc1cc(C#N)c(F)cc1Cc1nc(-c2ncc(F)c(O)n2)cn2c(F)cnc12` [Compound I-4, 2-fluoro-4-((3-fluoro-6-(5-fluoro-4-hydroxypyrimidin-2-yl)imidazo[1,2-a]pyrazin-8-yl)methyl)-5-methylbenzonitrile], the EC50 is over 5 µM.

Source of the values: US20260152504A1, “PYRIMIDINE SGC STIMULATORS” (Tisento Therapeutics Inc., priority 2022, published 2026).
